PubChem BioAssay AID328 (DTP/NCI, 2004)
“And” between values parts separate entries of the source, which are not always exact repeats. Equal entries are not always repeated. Toxic doses and inconclusive results are not listed. The calls were made as follows: active = survival T/C of 150% or more; inactive = T/C below 125% in these data.

Test system: BDF1 mice, P388 leukemia ip, median survival T/C
Test: NCI In Vivo Anticancer Drug Screen. Data for tumor model P388 Leukemia (intraperitoneal) in B6D2F1 (BDF1) mice
Settings: endpoint: median survival time, higher = longer survival
How it was run: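 Survival ratio, drug arm over vehicle arm, in mice with a transplanted tumour.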

[1] = dose: 100.0 mg/kg/injection, schedule: Q01DX009 (ip), vehicle: saline with Tween-80
[2] = dose: 200.0 mg/kg/injection, schedule: Q01DX009 (ip), vehicle: saline with Tween-80
[3] = dose: 400.0 mg/kg/injection, schedule: Q01DX009 (ip), vehicle: saline with Tween-80
[4] = dose: 12.5 mg/kg/injection, schedule: Q01DX009 (ip), vehicle: Klucel (hydroxypropylcellulose) (HPC)
[5] = dose: 25.0 mg/kg/injection, schedule: Q01DX009 (ip), vehicle: Klucel (hydroxypropylcellulose) (HPC)
[6] = dose: 50.0 mg/kg/injection, schedule: Q01DX009 (ip), vehicle: Klucel (hydroxypropylcellulose) (HPC)
[7] = dose: 100.0 mg/kg/injection, schedule: Q04DX003 (ip), vehicle: Klucel (hydroxypropylcellulose) (HPC)
[8] = dose: 200.0 mg/kg/injection, schedule: Q04DX003 (ip), vehicle: Klucel (hydroxypropylcellulose) (HPC)
[9] = dose: 400.0 mg/kg/injection, schedule: Q04DX003 (ip), vehicle: Klucel (hydroxypropylcellulose) (HPC)
[10] = dose: 25.0 mg/kg/injection, schedule: Q01DX009 (ip), vehicle: saline
[11] = dose: 50.0 mg/kg/injection, schedule: Q01DX009 (ip), vehicle: saline
[12] = dose: 50.0 mg/kg/injection, schedule: Q04DX003 (ip), vehicle: saline with Tween-80
[13] = dose: 100.0 mg/kg/injection, schedule: Q04DX003 (ip), vehicle: saline with Tween-80
[14] = dose: 200.0 mg/kg/injection, schedule: Q04DX003 (ip), vehicle: saline with Tween-80
[15] = dose: 400.0 mg/kg/injection, schedule: Q04DX003 (ip), vehicle: saline with Tween-80
[16] = dose: 25.0 mg/kg/injection, schedule: Q01DX009 (ip), vehicle: saline with Tween-80
[17] = dose: 50.0 mg/kg/injection, schedule: Q01DX009 (ip), vehicle: saline with Tween-80
[18] = dose: 12.5 mg/kg/injection, schedule: Q04DX003 (ip), vehicle: saline with Tween-80
[19] = dose: 25.0 mg/kg/injection, schedule: Q04DX003 (ip), vehicle: saline with Tween-80
[20] = dose: 100.0 mg/kg/injection, schedule: Q04DX003 (ip), vehicle: saline sonified
[21] = dose: 200.0 mg/kg/injection, schedule: Q04DX003 (ip), vehicle: saline sonified
[22] = dose: 100.0 mg/kg/injection, schedule: Q01DX009 (ip), vehicle: Klucel (hydroxypropylcellulose) (HPC)
[23] = dose: 200.0 mg/kg/injection, schedule: Q01DX009 (ip), vehicle: Klucel (hydroxypropylcellulose) (HPC)

Measured: T/C

O=C(CCC(=O)c1cccc([N+](=O)[O-])c1)NNc1ccc([N+](=O)[O-])cc1[N+](=O)[O-]
inactive: [1] 104 % of control | [2] 90 % of control | [3] 95 % of control

COc1ccc2nc3c(Cl)c(Cl)c(=O)c(Cl)c-3sc2c1
inactive: dose: 12.5 mg/kg/injection, schedule: Q01DX005 (ip), vehicle: saline with Tween-80 102 % of control | dose: 25.0 mg/kg/injection, schedule: Q01DX005 (ip), vehicle: saline with Tween-80 88 % of control

CCN(CC)CCCC(C)NS(=O)(=O)c1cccc2c(N(C)C)cccc12 (configuration not stated)
inactive: dose: 6.25 mg/kg/injection, schedule: Q04DX003 (ip), vehicle: water 97 % of control | dose: 12.5 mg/kg/injection, schedule: Q04DX003 (ip), vehicle: water 108 % of control | dose: 25.0 mg/kg/injection, schedule: Q04DX003 (ip), vehicle: water 118 % of control | dose: 50.0 mg/kg/injection, schedule: Q04DX003 (ip), vehicle: water 118 % of control | dose: 100.0 mg/kg/injection, schedule: Q04DX003 (ip), vehicle: water 115 % of control

CC(=O)[C@H]1CC[C@H]2[C@@H]3C[C@H](F)C4=CC(=O)CC[C@]4(C)[C@@]3(F)[C@@H](O)C[C@]12C
inactive: dose: 12.0 mg/kg/injection, schedule: Q01DX009 (ip), vehicle: Klucel (hydroxypropylcellulose) (HPC) 122 % of control | [4] 115 % of control | [5] 100 % of control and 103 % of control | [6] 90 % of control and 100 % of control | [7] 95 % of control and 113 % of control | [8] 95 % of control and 113 % of control | [9] 95 % of control and 104 % of control and 109 % of control

CCOc1nc(=O)n(C2CCOC2=O)cc1F (configuration not stated)
inactive: dose: 100.0 mg/kg/injection, schedule: Q01DX001 (ip), vehicle: Klucel (hydroxypropylcellulose) (HPC) 100 % of control | dose: 200.0 mg/kg/injection, schedule: Q01DX001 (ip), vehicle: Klucel (hydroxypropylcellulose) (HPC) 100 % of control | dose: 400.0 mg/kg/injection, schedule: Q01DX001 (ip), vehicle: Klucel (hydroxypropylcellulose) (HPC) 104 % of control

CC(=O)Nc1c(Cl)c(Cl)c2c(c1Cl)Cc1cc(Br)ccc1-2
inactive: dose: 8.25 mg/kg/injection, schedule: Q01DX009 (ip), vehicle: Klucel (hydroxypropylcellulose) (HPC) 100 % of control and 113 % of control | [4] 100 % of control and 118 % of control | dose: 18.75 mg/kg/injection, schedule: Q01DX009 (ip), vehicle: Klucel (hydroxypropylcellulose) (HPC) 100 % of control and 109 % of control | [5] 110 % of control | [10] 90 % of control | [11] 95 % of control

C=CCN(CC=C)/N=N/c1nc[nH]c1C(N)=O
inactive: [12] 100 % of control | [13] 95 % of control | [14] 113 % of control

COc1ccccc1Cl
inactive: [1] 103 % of control | [13] 116 % of control | [2] 103 % of control | [14] 104 % of control | [3] 96 % of control | [15] 108 % of control

CN1CCN(C2=Nc3ccccc3Cc3ccccc32)CC1
inactive: dose: 12.5 mg/kg/injection, schedule: Q01DX009 (ip), vehicle: saline with Tween-80 103 % of control | [16] 102 % of control | [17] 105 % of control and 108 % of control

CCOC(=O)N(CC)c1ccccc1
inactive: [7] 90 % of control | [8] 104 % of control | [9] 100 % of control

ClC(Cl)(Cl)c1nc2nccnc2[nH]1
inactive: dose: 44.0 mg/kg/injection, schedule: Q04DX003 (ip), vehicle: Klucel (hydroxypropylcellulose) (HPC) 104 % of control | [12] 109 % of control | dose: 66.0 mg/kg/injection, schedule: Q04DX003 (ip), vehicle: Klucel (hydroxypropylcellulose) (HPC) 108 % of control | dose: 66.0 mg/kg/injection, schedule: Q04DX003 (ip), vehicle: saline with Tween-80 109 % of control | [13] 104 % of control | dose: 150.0 mg/kg/injection, schedule: Q04DX003 (ip), vehicle: Klucel (hydroxypropylcellulose) (HPC) 100 % of control

Clc1ccc(-c2cc(=[N+]3CCCCC3)ss2)cc1
inactive: dose: 6.25 mg/kg/injection, schedule: Q04DX003 (ip), vehicle: saline with Tween-80 92 % of control | [18] 102 % of control and 103 % of control | [16] 110 % of control | [19] 93 % of control and 94 % of control | [17] 110 % of control | [12] 98 % of control and 99 % of control and 119 % of control | [13] 100 % of control and 102 % of control and 114 % of control

CN(/N=N/N(C)c1ccccc1)c1ccccc1
inactive: [20] 110 % of control | [2] 120 % of control | [21] 110 % of control | [3] 110 % of control | dose: 400.0 mg/kg/injection, schedule: Q04DX003 (ip), vehicle: saline sonified 100 % of control

COC(CC(C)CCCC(C)(C)O)OC (configuration not stated)
inactive: [6] 110 % of control | [22] 110 % of control | [7] 100 % of control | [23] 110 % of control | [8] 112 % of control

CC1SC(c2ccccc2)N(c2ccccc2)C1=O (configuration not stated)
inactive: [22] 104 % of control | [7] 104 % of control | [23] 116 % of control | [8] 104 % of control | dose: 400.0 mg/kg/injection, schedule: Q01DX009 (ip), vehicle: Klucel (hydroxypropylcellulose) (HPC) 100 % of control | [9] 109 % of control

Oc1ccc(-c2n[nH]c3c2CCCc2ccccc2-3)cc1
inactive: [18] 109 % of control | [19] 118 % of control | [12] 113 % of control

CC1(C(N)=O)CCCC2(C)c3ccccc3CCC12 (configuration not stated)
inactive: [13] 100 % of control | [14] 104 % of control | [15] 100 % of control

C1CCNCC1.O=C([CH-]C(=O)C(F)(F)F)c1ccc2c(c1)C(=O)c1ccccc1-2.O=C([CH-]C(=O)C(F)(F)F)c1ccc2c(c1)C(=O)c1ccccc1-2.O=C([CH-]C(=O)C(F)(F)F)c1ccc2c(c1)C(=O)c1ccccc1-2.O=C([CH-]C(=O)C(F)(F)F)c1ccc2c(c1)C(=O)c1ccccc1-2.[Eu+3]
inactive: [22] 102 % of control | [23] 102 % of control

CC(=O)O[C@@]1(C)C(=O)OCC2=CCN3CC[C@@H](OC(=O)[C@H](C)[C@]1(C)OC(C)=O)[C@@H]23
inactive: dose: 25.0 mg/kg/injection, schedule: Q01DX010 (ip), vehicle: carboxymethylcellulose (CMC) 105 % of control | dose: 50.0 mg/kg/injection, schedule: Q01DX010 (ip), vehicle: carboxymethylcellulose (CMC) 90 % of control

CS(=O)(=O)OCCN(CCOS(C)(=O)=O)c1ccccc1
active: dose: 16.5 mg/kg/injection, schedule: Q04DX003 (ip), vehicle: saline with Tween-80 150 % of control | dose: 37.5 mg/kg/injection, schedule: Q04DX003 (ip), vehicle: saline with Tween-80 222 % of control
inactive: dose: 16.5 mg/kg/injection, schedule: Q04DX003 (ip), vehicle: saline 113 % of control

CC(=O)OC1CCC2(C)C(CC(=O)C(C)C23CCC2(C=COC2)O3)C1(C)C (configuration not stated)
inactive: [10] 113 % of control | [11] 105 % of control | [1] 109 % of control | dose: 100.0 mg/kg/injection, schedule: Q01DX009 (ip), vehicle: saline 122 % of control | [2] 102 % of control

Cn1ncc2c(NCCc3ccccc3)ncnc21
inactive: [16] 100 % of control | [17] 100 % of control

O=[N+]([O-])c1ccc(N2CCN(CCO)CC2)c2c1no[n+]2[O-]
active: dose: 15.0 mg/kg/injection, schedule: Q01DX009 (ip), vehicle: saline with Tween-80 154 % of control | dose: 30.0 mg/kg/injection, schedule: Q01DX009 (ip), vehicle: saline with Tween-80 161 % of control

CC(C)CC(=O)CC1(C)CCC(c2ccoc2)O1 (configuration not stated)
inactive: [16] 96 % of control and 100 % of control | [17] 97 % of control and 105 % of control | [1] 103 % of control and 110 % of control | [2] 117 % of control

Cc1ccc[nH]c1=O
inactive: dose: 50.0 mg/kg/injection, schedule: Q04DX003 (ip), vehicle: saline sonified 91 % of control | [20] 91 % of control | [21] 100 % of control

COc1cc2c(cc1OC)[C@H]1Cc3cc(OC)c(OC)cc3[C@@H](C2)N1C(C)=O
inactive: dose: 50.0 mg/kg/injection, schedule: Q01DX005 (ip), vehicle: saline with Tween-80 91 % of control | dose: 100.0 mg/kg/injection, schedule: Q01DX005 (ip), vehicle: saline with Tween-80 91 % of control | dose: 200.0 mg/kg/injection, schedule: Q01DX005 (ip), vehicle: saline with Tween-80 93 % of control
